What was measured:
[1] = system: Antioxidant Response Element (ARE); assay: ARE reporter assay (ARE-32 luciferase reporter cell line); assay type: cell-based, rat; conditions: ARE32 (MCF7) luciferase reporter cells, 24 hours treatment; Nrf2 antioxidant response activation
Method: ARE activation was quantitated using the ARE-32 reporter cell line available from CXR-Biosciences as described in the ARE Assay below. ARE32 is a stable MCF7 cell line containing pGL8x-ARE (8 copies of the rat GST ARE linked to the luciferase gene) and pCDNA3.1, which contains the neomycin selectable marker. Selection was performed in the presence of G418 and resistant clones were isolated. Clones were screened for induction of luciferase in response to tBHQ (tert-Butylhydroquinone). The ARE32 cells are maintained routinely in the DMEM (phenol red free) containing: 10% FBS, 50 units/ml penicillin & 50 μg/ml streptomycin, 0.8 mg/ml G418. […] Cells were frozen in medium that contains 90% FBS and 10% dimethyl sulfoxide (DMSO). In a 96 well-plate, seed 1×10^4 cells/well in 100 μl DMEM containing 50 units/ml penicillin, 50 μg/ml streptomycin, 0.8 mg/ml G418 and 10% FBS. Next, incubate the cells at 37° C. in a 5% CO2 incubator for 24 hrs, and then replace the medium with 100 μl fresh media. Treat with test compounds at 2 μl per well, positive control was 25 μM TBHQ. (10 mM tBHQ of stock solution freshly prepared in DMSO). Add 100 μl of media after treatment for a final assay volume of 200 μL. Incubate the cells at 37° C. in CO2 incubator for another 24 hours. […]

keratinocytes = assay: Reduction in ATP depletion after peroxide stress (CellTiter-Glo); assay type: cell-based; conditions: 1 hour treatment, net luminescence = treatment counts minus vehicle control counts
Method: Hydrogen peroxide is a well-known ROS and is commonly used as a model to analyze the effects of various ROS. In this test, keratinocytes were cultured (passage <8) in T150 flasks using EpiLife® medium (Calcium Free and Phenol Red Free, supplemented with penicillin/streptomycin and keratinocytes growth supplement, Invitrogen™ cat# MEPICFPRF500). The keratinocytes were then plated in 24 well plates, 40,000 cells/well, 1 ml media. After 24 hours, the keratinocytes were treated with organic astaxanthin and astaxanthin in combination with Digestive Support Blend (see Example 1 above), Stress and Energy Support Blend (see Example 1 above), Reishi, or biotin for 1 hour. The keratinocytes were washed in PBS and ATP levels were measured using the CellTiter-Glo® Luminescent Cell Viability Assay (available from Promega, cat# G7571/2/3) per manufacturer's directions. Luminescence was measured on a SpectraMax® M3 (available from Molecular Devices, Sunnyvale, Calif., USA). Net luminescence (or net ATP) is calculated by subtracting the luminescence counts from the vehicle control from the luminescence counts from the treatment groups.

[2] = system: PGE2 release from UVB stressed keratinocytes; assay: PGE2 assay in UVB stressed keratinocytes; assay type: cell-based; conditions: telomerized human keratinocytes, UVB 15 mJ/cm^2, 24 hours treatment; PGE2 (pg/mL) normalized to ATP; FIG. 3
Method: Telomerized human keratinocytes are propgated in EpiLife® Media in CO2-incubator at 37° C. in T150 flasks (available from Corning®, Corning, N.Y., USA). […] The plates were incubated another 2 days until cell confluency reaches >80%. At this point, the cells were irradiated with a Bio-Sun™ UV with UVB light for a dose of 15 mJ/cm^2. The media was then switched with fresh medium prepared with the treatments. The cells were then incubated for 24 hours before harvest. At harvest, the media supernatant was collected and transferred to a deep well plate and frozen in −80° C. for later determination of PGE2 levels. PGE2 levels were measured from the media supernatants using the PGE2 Assay kit (available from Cisbio™, Bedford, Mass.) per manufacturer's directions. PGE2 levels here were normalized to the ATP measurements such that the final PGE2 values were recorded as PGE2 (pg/mL)/ATP level treatment compared to control. Typically, each data point is the average of 4 replicates.

CC1=C(/C=C/C(C)=C/C=C/C(C)=C/C=C/C=C(C)/C=C/C=C(C)/C=C/C2=C(C)C(=O)[C@@H](O)CC2(C)C)C(C)(C)C[C@H](O)C1=O [Organic Astaxanthin, Astaxanthin]
ARE - Fold Over Control [1]: 2.65 Fold Over Control | Net ATP (keratinocytes): 1096 | PGE2 release from keratinocytes [2]: reduce PGE2

O=C(O)CCCC[C@@H]1SC[C@@H]2NC(=O)N[C@@H]21 [Biotin]
ARE - Fold Over Control [1]: 1.71 Fold Over Control | Net ATP (keratinocytes): 947 | PGE2 release from keratinocytes [2]: reduce PGE2
